Here are results for six compounds from ChEMBL document CHEMBL5724914, “Linking interpersonal differences in gut microbiota composition and drug biotransformation activity” (2024).

Each structure is given as a SMILES string.

Data set [1] in a line: The drug is tested on Z-027 corresponding to metagenome with ENA study accession number: PRJEB37062 and ENA sample accession number: ERS12561826 for biotransformation under anaerobic condition. The drug concentrations were measured over 9 timepoints collected between 0 and 24 hours of incubation by liquid-chromatography-coupled mass spectrometry (LC–MS). To be noted: 2 µM.

The nature of data set [2]: The drug is tested on Z-023 corresponding to metagenome with ENA study accession number: PRJEB37062 and ENA sample accession number: ERS12561822 for biotransformation under anaerobic condition. The drug concentrations were measured over 9 timepoints collected between 0 and 24 hours of incubation by liquid-chromatography-coupled mass spectrometry (LC–MS). To be noted: 2 µM.

Data set [3] can be described thus: The drug is tested on Z-022 corresponding to mouse gut metagenome with ENA study accession number: PRJEB37062 and ENA sample accession number: ERS12561821 for biotransformation under anaerobic condition. The drug concentrations were measured over 9 timepoints collected between 0 and 24 hours of incubation by liquid-chromatography-coupled mass spectrometry (LC–MS). To be noted: 2 µM.

A short description of data set [4]: The drug is tested on Z-021 corresponding to metagenome with ENA study accession number: PRJEB37062 and ENA sample accession number: ERS12561820 for biotransformation under anaerobic condition. The drug concentrations were measured over 9 timepoints collected between 0 and 24 hours of incubation by liquid-chromatography-coupled mass spectrometry (LC–MS). To be noted: 2 µM.

The nature of data set [5]: The drug is tested on Z-010 corresponding to metagenome with ENA study accession number: PRJEB37062 and ENA sample accession number: ERS12561810 for biotransformation under anaerobic condition. The drug concentrations were measured over 9 timepoints collected between 0 and 24 hours of incubation by liquid-chromatography-coupled mass spectrometry (LC–MS). To be noted: 2 µM.

Data set [6] can be described thus: The drug is tested on Z-007 corresponding to rat gut metagenome with ENA study accession number: PRJEB37062 and ENA sample accession number: ERS12561807 for biotransformation under anaerobic condition. The drug concentrations were measured over 9 timepoints collected between 0 and 24 hours of incubation by liquid-chromatography-coupled mass spectrometry (LC–MS). Particulars: 2 µM.

Data set [7] is described as follows: The drug is tested on WLS-350 corresponding to human gut metagenome with ENA study accession number: PRJEB37062 and ENA sample accession number: ERS12561789 for biotransformation under anaerobic condition. The drug concentrations were measured over 9 timepoints collected between 0 and 24 hours of incubation by liquid-chromatography-coupled mass spectrometry (LC–MS). To be noted: 2 µM.

Data set [8] is described as follows: The drug is tested on WLS-007 corresponding to human gut metagenome with ENA study accession number: PRJEB37062 and ENA sample accession number: ERS12561742 for biotransformation under anaerobic condition. The drug concentrations were measured over 9 timepoints collected between 0 and 24 hours of incubation by liquid-chromatography-coupled mass spectrometry (LC–MS). To be noted: 2 µM.

For data set [9] the following is noted: human gut metagenome, 24 h, 2 µM.
The conditions of data set [10]: human gut metagenome, 24 h, 2 µM. The source holds these as a separate data set.
The conditions of data set [11]: human gut metagenome, 24 h, 2 µM. This is another data set of the same source.
The conditions of data set [12]: human gut metagenome, 24 h, 2 µM. This is another data set of the same source.
The conditions of data set [13]: human gut metagenome, 24 h, 2 µM. The source holds these as a separate data set.
For data set [14] the following is noted: human gut metagenome, 24 h, 2 µM. This is another data set of the same source.
The conditions of data set [15]: human gut metagenome, 24 h, 2 µM. The source holds these as a separate data set.
The conditions of data set [16]: human gut metagenome, 24 h, 2 µM. The source holds these as a separate data set.
For data set [17] the following is noted: human gut metagenome, 24 h, 2 µM. The source holds these as a separate data set.
For data set [18] the following is noted: human gut metagenome, 24 h, 2 µM. The source holds these as a separate data set.
The conditions of data set [19]: human gut metagenome, 24 h, 2 µM. The source holds these as a separate data set.
The conditions of data set [20]: human gut metagenome, 24 h, 2 µM. This is another data set of the same source.
Note: call rule not given here.

Turning to `COc1c(C)c2c(c(O)c1C/C=C(\C)CCC(=O)OCCN1CCOCC1)C(=O)OC2` [MYCOPHENOLATE MOFETIL], the “Bacterial Biotransformation” value in [1], in data set [2], in data set [3], in [4], in [5] and in data set [6] was “Compound metabolized” each time. Further, the “Bacterial Biotransformation” value in [7], in data set [8], in [9], in data set [10], in [11] and in data set [12] was “Compound metabolized” each time. In addition, the “Bacterial Biotransformation” value in data set [13], in [14], in [15], in data set [16], in data set [17] and in data set [18] was “Compound metabolized” in each case. For the same compound, the “Bacterial Biotransformation” value in data set [19] is reported as “Compound NOT metabolized”; in [20] it was “Compound metabolized”.

For the compound `CCN(CC)CCOC(=O)C(Cc1cccc2ccccc12)CC1CCCO1.O=C(O)C(=O)O` (stereo not given) [NAFRONYL OXALATE], the “Bacterial Biotransformation” value in data set [1] is given as “Compound NOT metabolized”; in [2], “Compound metabolized”; in [3], “Compound metabolized”; in [4], “Compound metabolized”; in [5] it was “Compound metabolized”; in [6], “Compound NOT metabolized”. The “Bacterial Biotransformation” value in [7], in data set [8], in data set [9], in data set [10], in [11] and in [12] was “Compound metabolized” each time. Also, the “Bacterial Biotransformation” value in data set [13] was “Compound metabolized”; in data set [14] it was “Compound metabolized”; in data set [15] it was “Compound NOT metabolized”; in [16], “Compound NOT metabolized”; in data set [17], “Compound metabolized”; in [18] it was “Compound metabolized”. Besides, the “Bacterial Biotransformation” value in data set [19] and in data set [20] was “Compound metabolized” in each case.

`CCc1nn(CCCN2CCN(c3cccc(Cl)c3)CC2)c(=O)n1CCOc1ccccc1` [NEFAZODONE]: the “Bacterial Biotransformation” value in data set [1], in data set [2], in data set [3], in data set [4], in data set [5] and in data set [6] was “Compound NOT metabolized” each time. The “Bacterial Biotransformation” value in [7] is “Compound NOT metabolized”; in data set [8], “Compound metabolized”; in [9], “Compound NOT metabolized”; in data set [10] it was “Compound NOT metabolized”; in data set [11] it was “Compound NOT metabolized”; in data set [12] it was “Compound NOT metabolized”. The “Bacterial Biotransformation” value in data set [13] was “Compound metabolized”; in data set [14], “Compound NOT metabolized”; in [15], “Compound metabolized”; in data set [16], “Compound NOT metabolized”; in data set [17], “Compound metabolized”; in data set [18], “Compound metabolized”. Besides, the “Bacterial Biotransformation” value in data set [19] and in data set [20] was “Compound metabolized” throughout.

Turning to `CN1CCOC(c2ccccc2)c2ccccc2C1` (stereo not given) [NEFOPAM], the “Bacterial Biotransformation” value in data set [1], in data set [2], in data set [3], in [4], in data set [5] and in data set [6] was “Compound NOT metabolized” each time. In addition, the “Bacterial Biotransformation” value in data set [7] was “Compound metabolized”; in [8], “Compound metabolized”; in [9], “Compound metabolized”; in data set [10], “Compound NOT metabolized”; in data set [11], “Compound metabolized”; in [12], “Compound metabolized”. The “Bacterial Biotransformation” value in data set [13] was “Compound metabolized”; in [14], “Compound NOT metabolized”; in data set [15] it was “Compound NOT metabolized”; in data set [16] it was “Compound NOT metabolized”; in data set [17] it was “Compound NOT metabolized”; in data set [18], “Compound metabolized”. Besides, the “Bacterial Biotransformation” value in data set [19] was “Compound NOT metabolized”; in data set [20], “Compound metabolized”.

Consider `Cc1ccnc2c1NC(=O)c1cccnc1N2C1CC1` [NEVIRAPINE], for which the “Bacterial Biotransformation” value in [1] is listed as “Compound NOT metabolized”; in data set [2], “Compound metabolized”; in [3], “Compound NOT metabolized”; in data set [4], “Compound NOT metabolized”; in data set [5], “Compound NOT metabolized”; in data set [6], “Compound NOT metabolized”. Besides, the “Bacterial Biotransformation” value in [7] is listed as “Compound metabolized”; in data set [8], “Compound metabolized”; in data set [9] it was “Compound NOT metabolized”; in data set [10] it was “Compound NOT metabolized”; in data set [11], “Compound NOT metabolized”; in data set [12], “Compound metabolized”. Besides, the “Bacterial Biotransformation” value is given as “Compound NOT metabolized” in [13]; “Compound metabolized” in data set [14]; “Compound metabolized” in [15]; “Compound NOT metabolized” in [16]; “Compound NOT metabolized” in data set [17]; “Compound NOT metabolized” in data set [18]. In addition, the results for the “Bacterial Biotransformation” value in data set [19] and in data set [20] were “Compound NOT metabolized” and “Compound metabolized”, respectively.

With `CO[C@]12C[C@@H](COC(=O)c3cncc(Br)c3)CN(C)[C@@H]1Cc1cn(C)c3cccc2c13` [NICERGOLINE], the “Bacterial Biotransformation” value was “Compound metabolized” in data set [1]; “Compound metabolized” in data set [2]; “Compound metabolized” in data set [3]; “Compound metabolized” in [4]; “Compound metabolized” in [5]; “Compound NOT metabolized” in data set [6]. The “Bacterial Biotransformation” value in [7], in data set [8], in data set [9], in data set [10], in data set [11] and in [12] was “Compound NOT metabolized” throughout. Also, the “Bacterial Biotransformation” value in [13], in data set [14], in data set [15], in data set [16], in data set [17] and in data set [18] was “Compound NOT metabolized” in each case. Besides, the “Bacterial Biotransformation” value in [19] and in [20] was “Compound NOT metabolized” each time.
